Experimental data: publication doi:10.1101/2021.02.18.431786v1 (biorxiv, 2021)

The molecules below were run against ABCG2 (Homo sapiens, UniProt Q9UNQ0) (assay: biochemical).
Chain of ABCG2 (Q9UNQ0 whole entry): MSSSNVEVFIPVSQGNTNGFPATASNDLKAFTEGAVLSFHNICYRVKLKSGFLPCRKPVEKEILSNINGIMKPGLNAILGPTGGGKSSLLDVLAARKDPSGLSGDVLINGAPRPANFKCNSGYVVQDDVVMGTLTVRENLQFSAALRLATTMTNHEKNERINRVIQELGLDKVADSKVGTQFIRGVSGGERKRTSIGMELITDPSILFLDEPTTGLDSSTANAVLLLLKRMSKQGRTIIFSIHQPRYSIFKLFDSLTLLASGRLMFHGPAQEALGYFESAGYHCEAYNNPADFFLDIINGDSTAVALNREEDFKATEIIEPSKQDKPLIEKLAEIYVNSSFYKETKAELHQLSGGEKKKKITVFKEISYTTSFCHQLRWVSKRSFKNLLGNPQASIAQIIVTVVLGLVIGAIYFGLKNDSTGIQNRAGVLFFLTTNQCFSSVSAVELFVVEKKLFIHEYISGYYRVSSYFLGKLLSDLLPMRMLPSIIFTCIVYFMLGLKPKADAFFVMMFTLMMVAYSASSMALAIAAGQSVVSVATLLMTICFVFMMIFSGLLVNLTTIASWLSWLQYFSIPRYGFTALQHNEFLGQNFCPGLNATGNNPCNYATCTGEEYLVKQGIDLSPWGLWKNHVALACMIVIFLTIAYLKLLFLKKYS
Molecule `CC[C@@]1(O)C(=O)OCc2c1cc1n(c2=O)Cc2cc3c(CN(C)C)c(O)ccc3nc2-1` [topotecan] has an EC50 of 11.7 ± 0.3 µM. `O=C1c2c(O)ccc(O)c2C(=O)c2c(NCCNCCO)ccc(NCCNCCO)c21` [mitoxantrone] was tested, and the EC50 was 18.3 ± 2.2 µM. `COc1cc2c(cc1OC)CN(CCc1ccc(NC(=O)c3cc(OC)c(OC)cc3NC(=O)c3cnc4ccccc4c3)cc1)CC2` [tariquidar] gave an EC50 of 0.08 ± 0.01 µM.
